Data on 26 molecules can be found in publication PMC11855478, “Bicyclic N,S-Acetals Containing Fused Cysteine-Amide System as New Heterocyclic Class Targeting Human Farnesyltransferase (FTase-h)” (International Journal of Molecular Sciences, 2025).

Assay [1] deals with human farnesyltransferase (FTase) (Homo sapiens, UniProt P49354+P49356). The experiment in a line: FTase inhibitory assay (fluorescence, Dansyl-GCVLS). The settings on record: for % FTI: inhibition of human FTase at 100 μM of tested compound, mean of two experiments; for IC50: human FTase in vitro. It is filed as biochemical. Here is the method: With 40 new products in hand, the determination of their inhibitory activity on human farnesyl-transferase (FTase) in vitro was first undertaken. Dimethyl sulfoxide (DMSO) was used as the negative control, and Chaetomellic acid A was the positive reference in all assays. At the outset, and in order to select only significant results, products with an inhibitory power greater than 60% at an initial screening concentration of 100 µM were retained for the determination of their IC50 and, therefore, for further discussion. Moreover, given the number of products tested, they are grouped into three subfamilies on the basis of the degree of the sulphur atom oxidation (series of sulfides, series of sulfoxides, and series of sulfones), and the results obtained are grouped in Table 1, Table 2 and Table 3.
3.3. FTase Inhibitory Assay
Assays were realized in 96-well plates, prepared with a Biomek NKMC and a Biomek 3000 from Beckman Coulter, and read on a Wallac Victor fluorimeter from PerkinElmer. Per well, 20 µL of farnesyl pyrophosphate (10 μM) was added to 180 µL of a solution containing 2 µL of varied concentrations of potential inhibitors (dissolved in DMSO) and 178 μL of a solution composed of 10 μL of partially purified recombinant human FTase (15 µg mL^−1) and 1.0 µL of Dansyl-GCVLS peptide (in the following buffer: 5.6 mM DTT, 5.6 mM MgCl2, 12 μM ZnCl2 and 0.2% (w/v) octyl-β-D-glucopyranoside, 52 mM Tris/HCl, pH 7.5). Fluorescence was recorded for 15 min (0.7 s per well, 20 repeats) at 30 °C with an excitation filter at 340 nm and an emission filter of 486 nm. Each measurement was reproduced twice, in duplicate. The kinetic experiments were realized under the same conditions, either with FPP as varied substrate with a constant concentration of Dns-GCVLS of 2.5 μM or with Dns-GCVLS as varied substrate with a constant concentration of FPP of 10 μM. Non-linear regressions were performed using the Excel software.

For a further assay, the target named is FTase. Conditions: Figure 1, cited from earlier work.

The structures appear in SMILES notation. Read-outs that look alike come from different tables or passages of the source.

As a reminder, the IC50 is the point on the concentration scale where inhibition reaches its midpoint.

Take `O=C(NCc1cccc(C(F)(F)F)c1)[C@@H]1CS(=O)(=O)[C@H]2c3ccccc3C(=O)N12` [7aD]: the “% FTI” value in assay [1] came out at 28%.

As for `COC1=C(OC)[C@H](O)[C@H](C/C=C(\C)CC/C=C(\C)CCC=C(C)C)[C@@H](C)C1=O` [Antroquinonol], the IC50 on FTase (known FTIs) was 2.99 µM.

Take `COc1ccc(CNC(=O)[C@@H]2CS(=O)(=O)[C@H]3c4ccccc4C(=O)N23)cc1` [7aF]: the “% FTI” value in assay [1] is 34%.

For the molecule `COc1ccc(CNC(=O)[C@@H]2CS(=O)(=O)[C@@]3(C)c4ccccc4C(=O)N23)cc1OC` [7bI], in assay [1], the “% FTI” value was found to be 13%.

As for `CN1C(=O)[C@]23CC4=CC=C[C@H](O)[C@H]4N2C(=O)[C@@]1(CO)SS3` [Gliotoxin], the results for the IC50 at FTase (known FTI) and at FTase (known FTIs) were 80 µM and 0.08 µM, respectively.

On to `CCCCCCCCCCCCCC/C(C(=O)O)=C(\C)C(=O)O` [Ref., Chaetomellic acid A, reference compound], for which, in assay [1], it took 0.183 µM to reach half-maximal inhibition (IC50) and the “% FTI” value is reported as 100%.

As for `C[C@]12c3ccccc3C(=O)N1[C@H](C(=O)NCc1cccc(C(F)(F)F)c1)C[S+]2[O-]` (some centres unmarked) [5bD], the “% FTI” value in assay [1] was determined as 43%.

In the case of `COc1ccc(CNC(=O)C2CS(=O)(=O)C3c4ccccc4C(=O)N23)cc1OC` (centres unmarked) [7aI], the “% FTI” value in assay [1] was determined as 53%.

For the molecule `COc1cccc(CNC(=O)[C@@H]2C[S+]([O-])[C@@]3(C)c4ccccc4C(=O)N23)c1` (some centres unmarked) [5bE], the “% FTI” value in assay [1] worked out at 62%.

In the case of `COc1ccc(CNC(=O)[C@@H]2C[S+]([O-])[C@@]3(C)c4ccccc4C(=O)N23)cc1OC` (some centres unmarked) [5bI], in assay [1], the “FTase inhibitory activity (in words)” value was “complete loss of inhibitory activity” and the “% FTI” value worked out at 0%.

For the molecule `CCCC[C@@H](C)/C=C(C)/C=C(\C)C(=O)NC1=C[C@@](O)(/C=C/C=C/C=C/C(=O)NC2=C(O)CCC2=O)[C@@H]2O[C@@H]2C1=O` [Manumycin-A], the 50% inhibitory concentration (IC50) at FTase (known FTIs) is 0.03 µM.

For `C[C@]12c3ccccc3C(=O)N1[C@H](C(=O)NCc1cccc(C(F)(F)F)c1)CS2(=O)=O` [7bD], in assay [1], the “% FTI” value stood at 32%.

Consider `Cn1cncc1[C@@](N)(c1ccc(Cl)cc1)c1ccc2c(c1)c(-c1cccc(Cl)c1)cc(=O)n2C` [Tipifarnib (R115777), Tipifarnib], for which the IC50 on FTase (known FTIs) was 0.0079 µM.

Take `C[C@]12c3ccccc3C(=O)N1[C@H](C(=O)NCc1ccccc1)CS2(=O)=O` [7bA]: in assay [1], the “% FTI” value was 41%.

As to `COc1ccccc1CNC(=O)[C@@H]1CS(=O)(=O)[C@@]2(C)c3ccccc3C(=O)N12` [7bG], in assay [1], inhibition was half-maximal at 0.0673 µM (IC50) and the “% FTI” value amounted to 74%.

`COc1cccc(CNC(=O)[C@@H]2CS(=O)(=O)[C@H]3c4ccccc4C(=O)N23)c1` [7aE]: the “% FTI” value in assay [1] worked out at 42%.

Regarding `COc1cccc(CNC(=O)[C@@H]2CS(=O)(=O)[C@@]3(C)c4ccccc4C(=O)N23)c1` [7bE], the “% FTI” value in assay [1] was 53%.

`COc1ccc(CNC(=O)[C@@H]2CS(=O)(=O)[C@@]3(C)c4ccccc4C(=O)N23)cc1` [7bF]: the “% FTI” value in assay [1] was found to be 44%.

With `CS(=O)(=O)CC[C@H](NC(=O)c1cccc(CNC(=O)[C@@H](N)CS)c1)C(=O)O` [C-AMBA-M], the half-inhibitory concentration (IC50) on FTase (known FTIs) is 0.06 µM.

As to `C[C@]12c3ccccc3C(=O)N1[C@H](C(=O)NCc1ccc(Cl)cc1Cl)CS2(=O)=O` [7bH], in assay [1], the “FTase inhibitory activity (in words)” value was “false positive” and the “% FTI” value was 76%.

On to `COc1ccccc1CNC(=O)[C@@H]1CS(=O)(=O)[C@H]2c3ccccc3C(=O)N12` [7aG], for which the “% FTI” value in assay [1] amounted to 47%.

With `COc1ccccc1CNC(=O)[C@@H]1C[S+]([O-])[C@@]2(C)c3ccccc3C(=O)N12` (some centres unmarked) [5bG], in assay [1], the IC50 amounted to 0.00403 µM and the “% FTI” value is reported as 87%.

Regarding `CC12c3ccccc3C(=O)N1C(C(=O)NCc1ccccc1)C[S+]2[O-]` (centres unmarked) [5bA], in assay [1], the “% FTI” value is recorded as 30%.

As for `C[C@]12c3ccccc3C(=O)N1[C@H](C(=O)NCc1ccc(Cl)cc1Cl)C[S+]2[O-]` (some centres unmarked) [5bH], the “% FTI” value in assay [1] is recorded as 31%.

In the case of `COc1ccc(CNC(=O)[C@@H]2C[S+]([O-])[C@@]3(C)c4ccccc4C(=O)N23)cc1` (some centres unmarked) [5bF], the “% FTI” value in assay [1] was 68%.

For the molecule `O=C(NCc1ccccc1)[C@@H]1CS(=O)(=O)[C@H]2c3ccccc3C(=O)N12` [7aA], in assay [1], the “% FTI” value was found to be 20%.
